Test results taken from US20260085067A1, “CYCLIC SULFONAMIDE RIBONUCLEOTIDE REDUCTASE (RNR) INHIBITORS AND USES THEREOF” (Boundless Bio, Inc., priority 2022, published 2026).
pIC50: −log10 of the molar value.

How the values were obtained:
RNR (RNR1:RNR2 1:1) = target: T1, RNR (RNR1:RNR2 1:1) (Homo sapiens, UniProt P23921); experiment: RNR enzyme activity, rapid-fire mass spectrometry (RF/MS) assay; format: biochemical; settings: [RNR] 50 nM, 1:1 RNR1:RNR2; CDP 5 μM; ATP 1 mM; 37° C., 45 min; compounds screened up to 50 μM
T1 sequence (P23921 1-792): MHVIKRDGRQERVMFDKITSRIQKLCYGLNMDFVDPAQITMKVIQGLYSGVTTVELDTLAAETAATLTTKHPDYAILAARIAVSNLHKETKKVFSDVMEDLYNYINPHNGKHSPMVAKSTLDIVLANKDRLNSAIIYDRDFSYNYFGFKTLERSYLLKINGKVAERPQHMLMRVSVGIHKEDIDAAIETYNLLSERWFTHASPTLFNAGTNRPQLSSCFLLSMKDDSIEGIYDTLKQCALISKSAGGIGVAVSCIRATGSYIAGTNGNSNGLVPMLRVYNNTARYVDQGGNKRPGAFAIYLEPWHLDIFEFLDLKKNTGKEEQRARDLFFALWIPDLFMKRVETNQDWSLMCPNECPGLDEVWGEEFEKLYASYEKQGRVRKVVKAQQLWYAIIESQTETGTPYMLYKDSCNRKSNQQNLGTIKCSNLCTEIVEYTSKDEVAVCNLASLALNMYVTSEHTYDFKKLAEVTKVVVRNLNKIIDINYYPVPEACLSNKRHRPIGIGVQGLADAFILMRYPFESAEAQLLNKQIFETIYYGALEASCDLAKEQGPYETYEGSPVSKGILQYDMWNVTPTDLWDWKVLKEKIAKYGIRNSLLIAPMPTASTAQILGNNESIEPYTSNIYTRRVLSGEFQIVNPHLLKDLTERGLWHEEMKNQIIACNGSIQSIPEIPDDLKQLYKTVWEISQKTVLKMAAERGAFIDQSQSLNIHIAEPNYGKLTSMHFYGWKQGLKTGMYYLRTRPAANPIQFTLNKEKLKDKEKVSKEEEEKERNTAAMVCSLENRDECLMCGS
How it was run: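 Human RNR (50 nM final, RNR1:RNR2 1:1) pre-incubated 15 min at room temperature, then reacted 45 min at 37 °C with 5 μM CDP and 1 mM ATP, no NADPH. Reaction quenched with 6% HCOOH; product quantified by rapid-fire mass spectrometry.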

[1] = tested on: pCHK1 (S345) in Colo320 DM cells; experiment: Alphalisa assay, detection of pCHK1 (S345) in Colo320 DM cells; format: cell-based, human; settings: Homo sapiens, COLO 320DM, compound overnight (approximately 16 hours)
How it was run: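 Colo320 DM cells plated overnight, then exposed to compound for about 16 h at 37 °C (DMSO <0.5%). Cells lysed and phospho-CHK1 (S345) quantified by AlphaLisa SureFire with sequential 60 min acceptor and donor incubations at room temperature.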

| pIC50 (RNR (RNR1:RNR2 1:1)) | pIC50 [1] | Structure (SMILES) |
| --- | --- | --- |
| 7.00 to 7.70 | ≥ 6.00 | CC(=O)c1c(Cl)ccc2c1N(C)CN([C@H](c1n[nH]c(=O)o1)[C@H](C)c1c(F)ccc(C)c1C)S2(=O)=O [Example 64, 5-((1S,2R)-1-(5-acetyl-6-chloro-4-methyl-1,1-dioxido-3,4-dihydro-2H-benzo[e][1,2,4]thiadiazin-2-yl)-2-(6-fluoro-2,3-dimethylphenyl)propyl)-1,3,4-oxadiazol-2 (3H)-one] |
| > 7.70 | ≥ 6.00 | Cc1ccc(F)c([C@@H](C)[C@@H](c2n[nH]c(=O)o2)N2CN(C3CN(C)C3)c3cc(Cl)ccc3S2(=O)=O)c1C [Example 65, 5-((1S,2R)-1-(6-chloro-4-(1-methylazetidin-3-yl)-1,1-dioxido-3,4-dihydro-2H-benzo[e][1,2,4]thiadiazin-2-yl)-2-(6-fluoro-2,3-dimethylphenyl)propyl)-1,3,4-oxadiazol-2 (3H)-one] |
| 7.00 to 7.70 | 4.30 to 5.00 | Cc1ccc(F)c([C@@H](C)[C@@H](c2n[nH]c(=O)o2)N2CN(C)c3cc(O)ccc3S2(=O)=O)c1C [Example 66, 5-((1S,2R)-2-(6-fluoro-2,3-dimethylphenyl)-1-(6-hydroxy-4-methyl-1,1-dioxido-3,4-dihydro-2H-benzo[e][1,2,4]thiadiazin-2-yl)propyl)-1,3,4-oxadiazol-2 (3H)-one] |
| 6.00 to 7.00 | 5.00 to 5.30 | Cc1ccc(F)c([C@@H](C)[C@@H](c2n[nH]c(=O)o2)N2CN(S(C)(=O)=O)c3cc(Cl)ccc3S2(=O)=O)c1C [Example 67, 5-((1S,2R)-1-(6-chloro-4-(methylsulfonyl)-1,1-dioxido-3,4-dihydro-2H-benzo[e][1,2,4]thiadiazin-2-yl)-2-(6-fluoro-2,3-dimethylphenyl)propyl)-1,3,4-oxadiazol-2 (3H)-one] |
| 7.00 to 7.70 | ≥ 6.00 | Cc1ccc(F)c([C@@H](C)[C@@H](c2n[nH]c(=O)o2)N2CN(C)c3cc(Cl)cc(C(C)O)c3S2(=O)=O)c1C (stereo partly drawn) [Example 68, 5-((1S,2R)-1-(6-chloro-8-(1-hydroxyethyl)-4-methyl-1,1-dioxido-3,4-dihydro-2H-benzo[e][1,2,4]thiadiazin-2-yl)-2-(6-fluoro-2,3-dimethylphenyl)propyl)-1,3,4-oxadiazol-2 (3H)-one] |
| 5.00 to 6.00 | < 4.30 | COCc1cc2c(cc1Cl)OCCN([C@H](c1n[nH]c(=O)o1)[C@H](C)c1c(F)ccc(C)c1C)S2(=O)=O [Example 69, 5-((1S,2R)-1-(7-chloro-8-(methoxymethyl)-1,1-dioxido-3,4-dihydro-2H-benzo[b][,4,5]oxathiazepin-2-yl)-2-(6-fluoro-2,3-dimethylphenyl)propyl)-1,3,4-oxadiazol-2 (3H)-one] |
| 7.00 to 7.70 | 5.30 to 6.00 | COCc1cc(Cl)cc2c1S(=O)(=O)N([C@H](c1n[nH]c(=O)o1)[C@H](C)c1c(F)ccc(C)c1C)CN2C [Example 70, 5-((1S,2R)-1-(6-chloro-8-(methoxymethyl)-4-methyl-1,1-dioxido-3,4-dihydro-2H-benzo[e][1,2,4]thiadiazin-2-yl)-2-(6-fluoro-2,3-dimethylphenyl)propyl)-1,3,4-oxadiazol-2 (3H)-one] |
| 6.00 to 7.00 | ≥ 6.00 | COCc1cc(Cl)cc2c1S(=O)(=O)N([C@H](c1n[nH]c(=O)o1)[C@H](C)c1c(F)ccc(C)c1C)CCO2 [Example 71, 5-((1S,2R)-1-(7-chloro-9-(methoxymethyl)-1,1-dioxido-3,4-dihydro-2H-benzo[b][1,4,5]oxathiazepin-2-yl)-2-(6-fluoro-2,3-dimethylphenyl)propyl)-1,3,4-oxadiazol-2 (3H)-one] |
| > 7.70 | ≥ 6.00 | Cc1ccc(F)c([C@@H](C)[C@@H](c2n[nH]c(=O)o2)N2CN(C)c3cc(Cl)cc(CO)c3S2(=O)=O)c1C [Example 72, 5-((1S,2R)-1-(6-chloro-8-(hydroxymethyl)-4-methyl-1,1-dioxido-3,4-dihydro-2H-benzo[e][1,2,4]thiadiazin-2-yl)-2-(6-fluoro-2,3-dimethylphenyl)propyl)-1,3,4-oxadiazol-2 (3H)-one] |
| > 7.70 | ≥ 6.00 | Cc1ccc(F)c([C@@H](C)[C@@H](c2n[nH]c(=O)o2)N2CN(CCO)c3nc(Cl)ccc3S2(=O)=O)c1C [Example 73, 5-((1S,2R)-1-(6-chloro-4-(2-hydroxyethyl)-1,1-dioxido-3,4-dihydro-2H-pyrido[2,3-e][1,2,4]thiadiazin-2-yl)-2-(6-fluoro-2,3-dimethylphenyl)propyl)-1,3,4-oxadiazol-2 (3H)-one] |
| > 7.70 | ≥ 6.00 | Cc1ccc(F)c([C@@H](C)[C@@H](c2n[nH]c(=O)o2)N2CN([C@@H]3CCN(C)C3)c3cc(Cl)ccc3S2(=O)=O)c1C [Example 74, 5-((1S,2R)-1-(6-chloro-4-((R)-1-methylpyrrolidin-3-yl)-1,1-dioxido-3,4-dihydro-2H-benzo[e][1,2,4]thiadiazin-2-yl)-2-(6-fluoro-2,3-dimethylphenyl)propyl)-1,3,4-oxadiazol-2 (3H)-one] |
| > 7.70 | 5.30 to 6.00 | Cc1ccc(F)c([C@@H](C)[C@@H](c2n[nH]c(=O)o2)N2CN(C)c3cc(Cl)cc(CBr)c3S2(=O)=O)c1C [Example 76, 5-((1S,2R)-1 (8-(bromomethyl)-6-chloro-4-methyl-1,1-dioxido-3,4-dihydro-2H-benzo[e][1,2,4]thiadiazin-2-yl)-2-(6-fluoro-2,3-dimethylphenyl)propyl)-1,3,4-oxadiazol-2 (3H)-one] |
| 6.00 to 7.00 | < 4.30 | Cc1ccc(F)c([C@@H](C)[C@@H](c2n[nH]c(=O)o2)N2CCOc3cc(Cl)c(CO)cc3S2(=O)=O)c1C [Example 77, 5-((1S,2R)-1-(7-chloro-8-(hydroxymethyl)-1,1-dioxido-3,4-dihydro-2H-benzo[b][1,4,5]oxathiazepin-2-yl)-2-(6-fluoro-2,3-dimethylphenyl)propyl)-1,3,4-oxadiazol-2 (3H)-one] |
| > 7.70 | ≥ 6.00 | Cc1ccc(F)c([C@@H](C)[C@@H](c2n[nH]c(=O)o2)N2CCOc3cc(Cl)cc(CO)c3S2(=O)=O)c1C [Example 78, 5-((1S,2R)-1-(7-chloro-9-(hydroxymethyl)-1,1-dioxido-3,4-dihydro-2H-benzo[b][1,4,5]oxathiazepin-2-yl)-2-(6-fluoro-2,3-dimethylphenyl)propyl)-1,3,4-oxadiazol-2 (3H)-one] |
| > 7.70 | ≥ 6.00 | Cc1ccc(F)c([C@@H](C)[C@@H](c2n[nH]c(=O)o2)N2CN(CCCO)c3cc(Cl)ccc3S2(=O)=O)c1C [Example 79, 5-((1S,2R)-1-(6-chloro-4-(3-hydroxypropyl)-1,1-dioxido-3,4-dihydro-2H-benzo[e][1,2,4]thiadiazin-2-yl)-2-(6-fluoro-2,3-dimethylphenyl)propyl)-1,3,4-oxadiazol-2 (3H)-one] |
| > 7.70 | ≥ 6.00 | Cc1ccc(F)c([C@@H](C)[C@@H](c2n[nH]c(=O)o2)N2CN(CCN3CCCC3)c3cc(Cl)ccc3S2(=O)=O)c1C [Example 80, 5-((1S,2R)-1-(6-chloro-1,1-dioxido-4-(2-(pyrrolidin-1-yl)ethyl)-3,4-dihydro-2H-benzo[e][1,2,4]thiadiazin-2-yl)-2-(6-fluoro-2,3-dimethylphenyl)propyl)-1,3,4-oxadiazol-2 (3H)-one] |
| > 7.70 | ≥ 6.00 | Cc1ccc(F)c([C@@H](C)[C@@H](c2n[nH]c(=O)o2)N2CN(CC(F)F)c3nc(Cl)ccc3S2(=O)=O)c1C [Example 81, 5-[(1S,2R)-1-[6-chloro-4-(2,2-difluoroethyl)-1,1-dioxo-3H-pyrido[2,3-e][1,2,4]thiadiazin-2-yl]-2-(6-fluoro-2,3-dimethyl-phenyl)propyl]-3H-1,3,4-oxadiazol-2-one] |
| > 7.70 | ≥ 6.00 | Cc1ccc(F)c([C@@H](C)[C@@H](c2n[nH]c(=O)o2)N2CN(CCCO)c3nc(Cl)ccc3S2(=O)=O)c1C [Example 82, 5-[(1S,2R)-1-[6-chloro-4-(3-hydroxypropyl)-1,1-dioxo-3H-pyrido[2,3-e][1,2,4]thiadiazin-2-yl]-2-(6-fluoro-2,3-dimethyl-phenyl)propyl]-3H-1,3,4-oxadiazol-2-one] |
| > 7.70 | ≥ 6.00 | Cc1ccc(F)c([C@@H](C)[C@@H](c2n[nH]c(=O)o2)N2CN(CC3COC3)c3cc(Cl)ccc3S2(=O)=O)c1C [Example 83, 5-((1S,2R)-1-(6-chloro-4-(oxetan-3-ylmethyl)-1,1-dioxido-3,4-dihydro-2H-benzo[e][1,2,4]thiadiazin-2-yl)-2-(6-fluoro-2,3-dimethylphenyl)propyl)-1,3,4-oxadiazol-2 (3H)-one] |
